How the values were obtained:
Assay in all cases: microbe, parasite or virus in culture
[1] = test system: A/Denmark/528/2009 (H1N1)
[2] = test system: B/Phuket/3073/2013 (Yamagata); details: Influenza B virus
[3] = test system: B/Utah/09/2014 (Yamagata); details: Influenza B virus
[4] = test system: A/California/07/2009 (H1N1)
[5] = test system: A/Denmark/524/2009 (H1N1)
[6] = test system: B/Brisbane/60/2008 (Victoria); details: Influenza B virus
[7] = test system: B/Wisconsin/1/2010 (Yamagata); details: Influenza B virus
A/Texas/04/2009 (H1N1) = test system: A/Texas/04/2009 (H1N1)
[8] = test system: A/Switzerland/9715293/2013 (H3N2)
[9] = test system: B/Memphis/20/1996 (Yamagata); details: Influenza B virus
[10] = test system: A/Washington/29/2009 (H1N1)

SMILES | EC50 [1] [µM] | EC50 [2] [µM] | EC50 [3] [µM] | EC50 [4] [µM] | EC50 [5] [µM] | EC50 [6] [µM] | EC50 [7] [µM] | EC50 (A/Texas/04/2009 (H1N1)) [µM] | EC50 [8] [µM] | EC50 [9] [µM] | EC50 [10] [µM]
C[C@@H](c1ccccc1)n1nnnc1[C@H](c1ccsc1)N1CCC(n2c(=O)[nH]c3ccccc32)CC1 [Compound 12a, 1‐{1‐[(S)‐{1‐[(1 S)‐1‐phenylethyl]‐1 H‐1,2,3,4‐tetrazol‐5‐yl}(thiophen‐3‐yl)methyl]piperidin‐4‐yl}‐2,3‐dihydro‐1 H‐1,3‐benzodiazol‐2‐one] | 0.9 ± 0.3 | 1.2 ± 0.2 | 1.5 ± 0.3 | 1.3 ± 0.4 | 0.8 ± 0.2 | 0.6 ± 0.3 | 0.8 ± 0.3 | 1.1 ± 0.4 | 1.4 ± 0.6 | 2.7 ± 0.2 | 0.9 ± 0.3
O=c1[nH]c2ccccc2n1C1CCN(C(CCc2ccccc2)c2nnnn2-c2ccc3c(c2)OCCO3)CC1 (centres unmarked) [Compound 5, 1‐(1‐{1‐[1‐(2,3‐dihydro‐1,4‐benzodioxin‐6‐yl)‐1,2,3,4‐tetrazol‐5‐yl]‐3‐phenylpropyl}piperidin‐4‐ yl)‐3 H‐1,3‐benzodiazol‐2‐one] |  |  |  | 4.5 ± 0.7 | 1.8 ± 0.4 | 1 ± 0.3 | 0.9 ± 0.2 | 3.5 ± 1.1 |  |  | 1.6 ± 0.5
